Measured values from patent publication US12686701B2, “Substitution of histidine with 2-thiohistidine in bioactive peptides” (University of Vermont and State Agricultural College, priority 2021, dated 2026).
“Also recorded” adds a separate entry of the source. *1 amine or outer side, *2 acyl side, *3 side chain or, on linkers, in order; H or OH if unused. Where a SMILES comes first, the peptide text is derived from it. [ ]: non-standard residue; d: D form. X1 = O=C([C@H](Cc1c[nH]c(=S)[nH]1)N[*:1])[*:2]

How the values were obtained:
[1] = ABTS radical scavenging activity (UV-Vis, 734 nm); type: biochemical; conditions: for ABTS radical TEAC: Trolox equivalent antioxidant capacity, 10 min, PBS pH 7.2, average of three or more trials, ND = activity too low to be determined, TEAC close to zero; for ability to scavenge ABTS radical (in words): absorbance peak at 734 nm
Experimental: Measurement of 2,2′-azino-di-[3-ethylbenzthiazoline sulfonate (6)] (ABTS) radical scavenging activity. ABTS scavenging assays were performed according to previously published protocols with some modifications. A 10 mM stock solution of potassium persulfate was prepared in deionized water. A stock solution of ABTS was prepared by dissolving 7 mM ABTS and 2.45 mM potassium persulfate in deionized water. This solution was allowed to incubate at room temperature in the dark for 12-16 h to allow potassium persulfate to oxidize the ABTS. Following oxidation, the solution was a dark blue/green color. This solution was stable in the dark at room temperature for at least 48 h. This solution was diluted with 100 mM phosphate buffered saline, pH 7.2 so that the final absorbance was 0.70±0.02 at 734 nm. Stock solutions for all peptides and for Trolox were prepared in a range from 0.1 mM to 3.2 mM in 100 mM phosphate buffered saline, pH 7.2. To test the ability of Trolox and peptides to reduce the ABTS radical cation, samples were prepared with 990 μL of the diluted ABTS solution and 10 μL of each of the peptide or Trolox stock solutions. For every trial, one sample was prepared with 990 μL ABTS and 10 μL of buffer. The samples were allowed to incubate at room temperature in the dark for 10 min. The spectrophotometer was blanked with 1 mL of 100 mM phosphate buffered saline, pH 7.2 from 200-800 nm. Scans were taken for each of the samples and the change in absorbance at 734 nm was monitored. Every sample was run in triplicate and the results were averaged. The percentage of inhibition of ABTS oxidation was calculated using Equation 2.
(§1) [formula] where Acontrol is the absorbance of the control (ABTS and buffer only) and Asample is the absorbance at 734 nm of the test peptide/standard. A Trolox calibration curve was prepared with concentrations ranging from 1-32 μM (FIG. 14). Similar curves were prepared for each of the peptides (FIG. 14). These curves were used to calculate TEAC values for each of the peptides by calculating the ratio of peptide to Trolox to achieve the same percent reduction of ABTS.

[2] = DPPH radical scavenging activity (UV-Vis, 517 nm); type: biochemical; conditions: for DPPH Radical TEAC: Trolox equivalent antioxidant capacity, 50 μM DPPH, 15 min, pH 7.0, 60:40 ethanol:buffer, ND = activity too low to be determined, TEAC close to zero; for ability to scavenge DPPH radical (in words): absorbance peak at 517 nm
Experimental: Measurement of 2,2-diphenyl-1-picrylhydrazyl (DPPH) radical scavenging activity. DPPH activity assays were conducted according to procedures known in the art. A 1 mM stock solution of DPPH was prepared by dissolving DPPH in 95% ethanol. Peptide stock solutions were prepared at a concentration of 5 mM in 100 mM potassium phosphate buffer, pH 7.0 for each of the His- and 2-thioHis-containing peptides. 6-hydroxy-2,5,7,8-tetramethylchromane-2-carboxylic acid (Trolox) was used as a standard for antioxidant activity and a positive control. A 5 mM solution of Trolox in 100 mM potassium phosphate, pH 7.0 was prepared. A blank was prepared by mixing 600 μL of 95% ethanol with 400 μL of 100 mM potassium phosphate, pH 7.0 in a cuvette. This solution was used to blank the spectrophotometer from 200-800 nm. In each sample, a 60:40 ratio of ethanol:buffer was maintained. To test the ability of Trolox and the different peptides to reduce DPPH, 50 μM DPPH was combined with different concentrations of peptide or Trolox ranging from 5 μM to 500 μM and the total volume of each sample was adjusted to 1 mL with buffer and ethanol. The samples were allowed to incubate at room temperature in the dark for 15 min, after which each sample was scanned and changes in the absorbance at 517 nm were monitored. Trials were run in triplicate for each of the peptides and Trolox. For every trial, one sample was prepared with only 50 μM DPPH (no peptide or Trolox) to serve as a control. The percentage of inhibition of DPPH oxidation was calculated using Equation 1:
as §1, with “(DPPH” for “(ABTS”, “517” for “734”, “5-50” for “1-32”, “13).” for “14).”, “Trolox equivalent antioxidant capacity (TEAC)” for “TEAC”, “DPPH.” for “ABTS.”

[3] = Hydroxyl radical scavenging activity by room temperature EPR (Fenton reaction, DMPO spin trap); type: biochemical; conditions: for Hydroxyl Radical RSA (%): all analytes at 1 mM, potassium phosphate pH 7.4, average of three or more trials; for increase in ·OH scavenging ability on substituting 2-thioHis for His: difference of RSA versus His-containing counterpart; for increase in ·OH scavenging ability on substituting 2-thioHis for His / ability to scavenge ·OH (in words): 1 mM
Experimental: Measurement of hydroxyl radical scavenging activity. Hydroxyl radical scavenging activity of peptides was measured with room temperature EPR spectroscopy according to known methods with some modifications. Hydroxyl radicals were generated by the iron-catalyzed Fenton Haber-Weiss reaction, and the generated hydroxyl radicals were reacted with the nitrone spin trap 5,5-dimethyl-1-pyrroline-N-oxide (DMPO). The resultant DMPO-OH adducts were detectable with EPR spectroscopy. The peptide (1 mM final concentration) was added to a solution containing: 24 mM DMPO, 0.8 mM FeSO4, and 0.8 mM H2O2 in 100 mM potassium phosphate buffer, pH 7.4 in a final reaction volume of 250 μL. This solution was immediately transferred into a 50 μL quartz capillary tube. After 5 min, the EPR spectrum was recorded using a Bruker X-band EPR spectrometer operating at 9.42 GHz. The experimental conditions employed were as follows: magnetic field, 336.5±10 mT; power, 2 mW; modulation amplitude, 2.00 G; time constant, 327.68 ms, modulation frequency, 100 kHz; receiver gain, 30 dB sweep time, 60 s. Trials were performed in triplicate for each peptide. The double integral of the EPR spectra was obtained and used to determine the signal intensity for each sample. The hydroxyl radical scavenging ability was calculated using Equation 3, in which H and H0 are relative peak height of radical signals with and without sample, respectively. [formula]

[4] = Low temperature (95 K) EPR of peptide-Cu(II) complexes; type: binding; conditions: from EPR spectra, not quantified
Experimental: Low temperature EPR studies. The ability of each peptide to bind Cu(II) was determined by low temperature (95 K) EPR spectroscopy using the methods known in the art with some modifications. Samples of 200 μM and 400 μM peptide were incubated for 10 min at room temperature with 200 μM CuCl2 in 100 mM potassium phosphate, pH 7.4. Following incubation, aliquots of each sample were transferred into 4 mm inner diameter quartz EPR tubes (Wilmad-LabGlass). The samples were frozen in liquid nitrogen and stored in liquid nitrogen prior to use. Control samples were prepared with only buffer and with 200 μM CuCl2 in potassium phosphate buffer. Low temperature EPR spectra were gathered with a Bruker EPR spectrometer operating at 9.42 GHz with the following parameters: scan range, 6000 G; field set, 3200 G; time constant, 164 ms; scan time, 60 s; modulation amplitude, 7.000 G; modulation frequency, 100 kHz; receiver gain, 30 dB; microwave power, 20 mW; and number of scans, 5.

NC(Cc1c[nH]c(=S)[nH]1)C(=O)O [2-thioHis, L-2-thiohistidine]
ABTS radical TEAC [1]: 1.50 ± 0.03 | DPPH Radical TEAC [2]: 1.00 ± 0.02 | ability to scavenge DPPH radical (in words) [2]: same ability as Trolox | Hydroxyl Radical RSA (%) [3]: 56.0 ± 2.1% | increase in ·OH scavenging ability on substituting 2-thioHis for His [3]: 7.5%

NCCC(=O)N[C@@H](Cc1cnc[nH]1)C(=O)O [Carnosine, H-βAH-OH, reference compound]
ability to scavenge ·OH (in words) [3]: not a good ·OH scavenger | Hydroxyl Radical RSA (%) [3]: 31.4 ± 4.2%

N[C@@H](Cc1c[nH]cn1)C(=O)O [His, histidine]
Hydroxyl Radical RSA (%) [3]: 48.5 ± 7.3%

Cc1c(C)c2c(c(C)c1O)CCC(C)(C(=O)O)O2 (centres unmarked) [Trolox, 6-hydroxy-2,5,7,8-tetramethylchromane-2-carboxylic acid, reference compound]
ABTS radical TEAC [1]: 1.00 | DPPH Radical TEAC [2]: 1.00

CC(C)C[C@H](NC(=O)[C@@H]1CCCN1C(=O)CNC(=O)[C@H](CC(C)C)NC(=O)[C@@H]1CCCN1C(=O)CNC(=O)[C@@H](N)Cc1c[nH]c(=S)[nH]1)C(=O)O [thioHGPLGPL, H-thioHGPLGPL-OH] (H-[X1]GPLGPL-OH)
ABTS radical TEAC [1]: 2.14 ± 0.02 | DPPH Radical TEAC [2]: 0.95 ± 0.01 | ability to scavenge ·OH (in words) [3]: equivalent to 2-thioHis itself | Hydroxyl Radical RSA (%) [3]: 59.7 ± 3.0% | increase in ·OH scavenging ability on substituting 2-thioHis for His [3]: 12%

H-GHK-OH [reference compound]
ability to scavenge ABTS radical (in words) [1]: no decrease in the ABTS absorbance peak at 734 nm | ability to scavenge DPPH radical (in words) [2]: only a slight decrease in the DPPH absorbance peak at 517 nm | Hydroxyl Radical RSA (%) [3]: 65.4 ± 0.008%

H-GthioHK-OH
ABTS radical TEAC [1]: 2.61 ± 0.01 | ability to scavenge ABTS radical (in words) [1]: completely reduce the DPPH and ABTS radicals; also recorded: slightly higher TEAC value than the other 2-thioHis peptides | DPPH Radical TEAC [2]: 0.95 ± 0.02 | ability to scavenge DPPH radical (in words) [2]: completely reduce the DPPH and ABTS radicals | ability to scavenge ·OH (in words) [3]: highest RSA of all compounds tested; also recorded: nearly completely abolishing the signal | Hydroxyl Radical RSA (%) [3]: 97.0 ± 0.3% | increase in ·OH scavenging ability on substituting 2-thioHis for His [3]: 31.6%

H-βAthioH-OH [thioHcarnosine]
ABTS radical TEAC [1]: 2.25 ± 0.05 | affinity for / binding of Cu(II) (in words) [4]: higher affinity for Cu(II) than carnosine | DPPH Radical TEAC [2]: 0.80 ± 0.01 | ability to scavenge ·OH (in words) [3]: less than 2-thioHis | Hydroxyl Radical RSA (%) [3]: 43.5 ± 1.1% | increase in ·OH scavenging ability on substituting 2-thioHis for His [3]: 13%

HGPLGPL [H-HGPLGPL-OH, reference compound]
Hydroxyl Radical RSA (%) [3]: 46.8 ± 1.3%
